The values below are quoted from earlier work in patent US9212386B2, “Enzymatic cleavage based lateral flow assays” (Rapid Pathogen Screening, Inc., priority 2011, dated 2015).

*: point of attachment. FITC = O=C1OC2(c3ccc(O)cc3Oc3cc(O)ccc32)c2ccc(NC(=S)*)cc21; Ahx = NCCCCCC(=O)O

Series [1] relates to Bacterial Enzyme Targets (tested micro-organisms). To be noted: micro-organisms whose enzymes cleave the peptide.
For series [2], the system named is Bacterial Enzyme Targets (bacterial supernatants of tested micro-organisms). To be noted: for In vitro Cleavage Activity (using FRET): micro-organisms whose enzymes cleave the peptide.

On to “FITC-Ahx-Gly-Gly-Gly-Gly-Lys-DABCYL ({FITC-Ahx}-GGGGK-{DABCYL})”, for which, in series [1], the “Ex vivo Cleavage activity (using FRET)” value was “P. aeruginosa”. Also, the “In vitro Cleavage Activity (using FRET)” value in series [2] is given as “P. aeruginosa”.
On to FITC-Ahx-Leu-DLeu-Lys-DABCYL [BikKam 1], for which, in series [2], the “selectivity of peptide cleavage” value is given as “highly selective for B. anthracis” and the “In vitro Cleavage Activity (using FRET)” value is reported as “B. anthracis”.
For FITC-Ahx-Leu-DVal-Lys-DABCYL [BikKam 6], the “In vitro Cleavage Activity (using FRET)” value in series [2] is listed as “B. anthracis (moderate)”.
